From patent US20090203689A1, “ABCA-1 ELEVATING COMPOUNDS AND METHODS” (priority 2008, published 2009) come the findings set out here.

The assay concerns ABCA-1. Description: Measurement of ABCA-1 protein expression (western blot) in liver of treated ZDF rats. In kind it is in vivo, ZDF (Zucker diabetic fatty) rats. The following applies: treated at 0, 2 and 4 hrs, western blot quantitated by densitometry, normalized to time-point vehicle controls, time-course (FIG. 2). Here is the method: FIG. 2 illustrates the time-course of the effect of treatment on hepatic ABCA1 protein expression in ZDF rats. Rats were treated with a test compound of Formula I at 0, 2 and 4 hrs. […] ABCA1 protein expression was measured by western blot and quantitated by densitometry, Time-point vehicle controls were used to normalize ABCA1 expression at each time-point.
Cellular ABCA-1 protein expression in cells or tissues were quantitated from homogenates prepared from tissue or cells homogenized in a lysis buffer containing protease inhibitors. Lysate proteins were separated by SDS-PAGE and western blotted for ABCA11 and a housekeeping protein. ABCA-1 was detected with a mouse monoclonal antibody that cross-reacts with human, rat and mouse. β-Actin (or other commonly used normalization proteins) were detected with the appropriate commercial antibody. Using the described assay, the effect of treatment on hepatic ABCA1 protein expression in ZDF rats was determined. Rats were treated with a test compound of Formula I at 0, 2 and 4 hrs. […] Time-point vehicle controls were used to normalize ABCA1 expression at each time-point. The test compound of Formula I used in the experiments of FIG. 2 was 2-{6-[((1R,2R)-2-hydroxycyclopentyl)amino]purin-9-yl}(4S,5S,2R,3R)-5-[(2-fluorophenylthio)methyl]oxolane-3,4-diol.

As to `O[C@@H]1[C@H](O)[C@@H](CSc2ccccc2F)O[C@H]1n1cnc2c(N[C@@H]3CCC[C@H]3O)ncnc21` [2-{6-[((1R,2R)-2-hydroxycyclopentyl)amino]purin-9-yl}(4S,5S,2R,3R)-5-[(2-fluorophenylthio)methyl]oxolane-3,4-diol], the “hepatic ABCA1 protein expression” value is on record as “increases ABCA-1 protein expression with time”.
